The values below come from ChEMBL document CHEMBL4665778, “Discovery of Potent and Selective PI3Kγ Inhibitors” (J Med Chem, 2020).

For series [1], the target named is PI3-kinase p110-alpha/p85-alpha (Homo sapiens, UniProt P42336).
Description: Inhibition of recombinant N-terminal FLAG-tagged full-length human PI3K p110alpha/human p85alpha co- expressed in Sf9 insect cells using phosphatidylinositol 4,5-bisphosphate as substrate preincubated for 60 mins followed by substrate addition and measured after 1 hr in presence of ATP by ADP-Glo lipid kinase assay
Series [2] is described as follows: Volume of distribution at steady state in Sprague-Dawley rat at 0.25 mg/kg, iv by LC-MS/MS analysis. The format is ADME, organism-based. Particulars: in vivo, read-out: Vdss.
Series [3] is described as follows: Clearance in Sprague-Dawley rat at 0.25 mg/kg, iv by LC-MS/MS analysis. The format is ADME, organism-based. Particulars: in vivo.
Series [4] in a line: Intrinsic clearance rat hepatocytes assessed per 10^6 cells by LC-MS/MS analysis. The format is ADME, tissue-based, Hepatocyte. Particulars: read-out: CLH.
Series [5] can be described thus: Intrinsic clearance in human hepatocytes assessed per 10^6 cells at 0.5 uM by LC-MS/MS analysis. It is filed as ADME, cell-based, Hepatocyte. Particulars: read-out: CLH.
The next series has as its target PI3K p110 beta/p85 alpha (Homo sapiens, UniProt P42338).
Series [6] has as its target PI3-kinase p110-delta/p85-alpha (Homo sapiens, UniProt O00329).
Description: Inhibition of recombinant N-terminal GST-tagged full-length human PI3K p110delta/p85alpha co- expressed in Sf9 insect cells using phosphatidylinositol 4,5-bisphosphate as substrate preincubated for 60 mins followed by substrate addition and measured after 1 hr in presence of ATP by ADP-Glo lipid kinase assay
Series [7] deals with T1, Phosphatidylinositol 4,5-bisphosphate 3-kinase catalytic subunit gamma isoform (Homo sapiens, UniProt P48736).
T1 sequence (P48736 whole entry, canonical isoform): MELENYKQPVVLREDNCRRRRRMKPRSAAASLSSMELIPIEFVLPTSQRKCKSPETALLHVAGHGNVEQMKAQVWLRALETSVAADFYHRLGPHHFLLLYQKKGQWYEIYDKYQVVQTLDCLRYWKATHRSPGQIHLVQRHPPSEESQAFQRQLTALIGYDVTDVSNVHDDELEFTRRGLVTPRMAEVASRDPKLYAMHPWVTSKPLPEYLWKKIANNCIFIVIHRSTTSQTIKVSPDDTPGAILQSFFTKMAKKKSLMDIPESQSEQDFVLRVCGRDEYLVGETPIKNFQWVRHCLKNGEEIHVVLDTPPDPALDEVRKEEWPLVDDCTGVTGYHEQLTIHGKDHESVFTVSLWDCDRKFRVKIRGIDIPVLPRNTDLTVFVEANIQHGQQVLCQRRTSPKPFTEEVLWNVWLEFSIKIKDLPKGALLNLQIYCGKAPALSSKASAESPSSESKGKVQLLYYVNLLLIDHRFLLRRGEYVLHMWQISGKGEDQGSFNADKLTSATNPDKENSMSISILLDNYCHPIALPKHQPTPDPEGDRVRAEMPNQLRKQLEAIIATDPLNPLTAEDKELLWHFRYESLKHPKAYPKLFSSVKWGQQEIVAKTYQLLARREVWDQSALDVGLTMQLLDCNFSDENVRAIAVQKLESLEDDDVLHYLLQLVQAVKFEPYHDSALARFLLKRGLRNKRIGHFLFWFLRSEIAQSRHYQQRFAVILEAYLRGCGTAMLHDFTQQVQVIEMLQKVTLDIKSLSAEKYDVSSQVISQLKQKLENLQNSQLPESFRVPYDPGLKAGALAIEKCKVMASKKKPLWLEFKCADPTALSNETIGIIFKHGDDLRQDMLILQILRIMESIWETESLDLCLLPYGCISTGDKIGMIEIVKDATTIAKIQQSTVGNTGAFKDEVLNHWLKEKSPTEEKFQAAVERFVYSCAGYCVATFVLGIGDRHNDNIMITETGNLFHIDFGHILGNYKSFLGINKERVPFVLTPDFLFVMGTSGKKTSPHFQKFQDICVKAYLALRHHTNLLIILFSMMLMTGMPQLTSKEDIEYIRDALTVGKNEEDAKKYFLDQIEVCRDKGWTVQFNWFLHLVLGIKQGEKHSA
Description: Inhibition of PI3Kgamma in human THP-1 cells assessed as reduction in Akt phosphorylation at S473 residue incubated for 60 mins by alphalisa assay
In series [8] the target is T1, Phosphatidylinositol 4,5-bisphosphate 3-kinase catalytic subunit gamma isoform. This is another data set of the same source.
Description: Inhibition of recombinant N-terminal His-tagged full-length human PI3K p120gamma expressed in Sf9 insect cells using phosphatidylinositol 4,5-bisphosphate as substrate preincubated for 60 mins followed by substrate addition and measured after 1 hr in presence of ATP by ADP-Glo lipid kinase assay
Another series deals with CYP3A4 (Homo sapiens, UniProt P08684). In words: in vitro. Particulars: liver microsomes, probe midazolam. Background: Liver microsomes are vesicles of endoplasmic reticulum, rich in cytochrome P450 enzymes.
For another series, the species on record is Homo sapiens. In words: Selectivity index, ratio of IC50 for N-terminal FLAG-tagged full-length human PI3K p110beta/human p85alpha to IC50 for recombinant N-terminal His-tagged full-length human PI3K p120gamma.

PI3-kinase p110-delta/p85-alpha, sequence (P27986 whole entry, canonical isoform): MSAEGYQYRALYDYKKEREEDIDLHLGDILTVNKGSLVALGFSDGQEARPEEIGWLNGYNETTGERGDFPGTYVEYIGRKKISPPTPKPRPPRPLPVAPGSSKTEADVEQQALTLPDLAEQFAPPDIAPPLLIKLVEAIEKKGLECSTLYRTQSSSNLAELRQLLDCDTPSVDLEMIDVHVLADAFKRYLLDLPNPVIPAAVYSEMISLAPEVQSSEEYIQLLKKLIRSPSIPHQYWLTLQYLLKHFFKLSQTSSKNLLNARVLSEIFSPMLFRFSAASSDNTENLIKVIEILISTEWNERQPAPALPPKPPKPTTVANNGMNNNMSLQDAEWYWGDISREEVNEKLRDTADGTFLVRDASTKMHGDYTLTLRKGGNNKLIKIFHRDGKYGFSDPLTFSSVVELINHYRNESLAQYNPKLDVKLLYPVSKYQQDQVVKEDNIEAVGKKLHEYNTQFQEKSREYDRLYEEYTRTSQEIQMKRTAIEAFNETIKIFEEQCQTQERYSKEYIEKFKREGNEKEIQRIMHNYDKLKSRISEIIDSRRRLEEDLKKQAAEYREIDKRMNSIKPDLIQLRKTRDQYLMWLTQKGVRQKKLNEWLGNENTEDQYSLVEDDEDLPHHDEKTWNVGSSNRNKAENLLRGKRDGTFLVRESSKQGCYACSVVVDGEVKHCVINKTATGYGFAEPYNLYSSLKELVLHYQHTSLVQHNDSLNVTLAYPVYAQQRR
PI3-kinase p110-delta/p85-alpha, sequence (O00329 whole entry, canonical isoform): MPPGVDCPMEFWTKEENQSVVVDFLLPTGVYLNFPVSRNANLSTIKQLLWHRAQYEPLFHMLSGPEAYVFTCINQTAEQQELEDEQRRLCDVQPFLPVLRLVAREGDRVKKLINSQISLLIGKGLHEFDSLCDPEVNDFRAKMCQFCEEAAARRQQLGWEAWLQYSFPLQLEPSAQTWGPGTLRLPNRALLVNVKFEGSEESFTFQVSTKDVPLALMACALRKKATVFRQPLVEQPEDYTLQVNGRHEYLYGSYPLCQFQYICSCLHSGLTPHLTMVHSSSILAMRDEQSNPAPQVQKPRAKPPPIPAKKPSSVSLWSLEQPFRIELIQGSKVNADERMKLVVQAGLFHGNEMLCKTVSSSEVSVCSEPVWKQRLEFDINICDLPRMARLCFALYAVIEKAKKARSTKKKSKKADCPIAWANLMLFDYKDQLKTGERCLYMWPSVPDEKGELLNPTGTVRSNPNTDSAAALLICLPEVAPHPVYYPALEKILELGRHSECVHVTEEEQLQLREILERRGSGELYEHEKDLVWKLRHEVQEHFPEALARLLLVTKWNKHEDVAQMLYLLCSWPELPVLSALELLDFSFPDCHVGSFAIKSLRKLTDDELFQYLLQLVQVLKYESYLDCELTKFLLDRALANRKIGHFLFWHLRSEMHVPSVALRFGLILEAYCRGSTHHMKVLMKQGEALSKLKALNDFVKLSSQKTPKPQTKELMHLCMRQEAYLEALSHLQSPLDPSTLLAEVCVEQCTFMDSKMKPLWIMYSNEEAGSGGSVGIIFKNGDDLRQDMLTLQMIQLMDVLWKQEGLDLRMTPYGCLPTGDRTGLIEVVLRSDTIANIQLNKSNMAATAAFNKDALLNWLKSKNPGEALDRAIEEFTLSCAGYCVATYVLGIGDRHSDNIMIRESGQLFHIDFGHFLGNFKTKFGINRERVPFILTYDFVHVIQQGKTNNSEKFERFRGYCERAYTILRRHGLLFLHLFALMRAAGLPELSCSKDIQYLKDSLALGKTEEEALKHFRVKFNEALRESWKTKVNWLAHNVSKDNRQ
PI3-kinase p110-alpha/p85-alpha, sequence (P27986 whole entry): as the sequence (P27986 whole entry, canonical isoform) above
PI3-kinase p110-alpha/p85-alpha, sequence (P42336 whole entry): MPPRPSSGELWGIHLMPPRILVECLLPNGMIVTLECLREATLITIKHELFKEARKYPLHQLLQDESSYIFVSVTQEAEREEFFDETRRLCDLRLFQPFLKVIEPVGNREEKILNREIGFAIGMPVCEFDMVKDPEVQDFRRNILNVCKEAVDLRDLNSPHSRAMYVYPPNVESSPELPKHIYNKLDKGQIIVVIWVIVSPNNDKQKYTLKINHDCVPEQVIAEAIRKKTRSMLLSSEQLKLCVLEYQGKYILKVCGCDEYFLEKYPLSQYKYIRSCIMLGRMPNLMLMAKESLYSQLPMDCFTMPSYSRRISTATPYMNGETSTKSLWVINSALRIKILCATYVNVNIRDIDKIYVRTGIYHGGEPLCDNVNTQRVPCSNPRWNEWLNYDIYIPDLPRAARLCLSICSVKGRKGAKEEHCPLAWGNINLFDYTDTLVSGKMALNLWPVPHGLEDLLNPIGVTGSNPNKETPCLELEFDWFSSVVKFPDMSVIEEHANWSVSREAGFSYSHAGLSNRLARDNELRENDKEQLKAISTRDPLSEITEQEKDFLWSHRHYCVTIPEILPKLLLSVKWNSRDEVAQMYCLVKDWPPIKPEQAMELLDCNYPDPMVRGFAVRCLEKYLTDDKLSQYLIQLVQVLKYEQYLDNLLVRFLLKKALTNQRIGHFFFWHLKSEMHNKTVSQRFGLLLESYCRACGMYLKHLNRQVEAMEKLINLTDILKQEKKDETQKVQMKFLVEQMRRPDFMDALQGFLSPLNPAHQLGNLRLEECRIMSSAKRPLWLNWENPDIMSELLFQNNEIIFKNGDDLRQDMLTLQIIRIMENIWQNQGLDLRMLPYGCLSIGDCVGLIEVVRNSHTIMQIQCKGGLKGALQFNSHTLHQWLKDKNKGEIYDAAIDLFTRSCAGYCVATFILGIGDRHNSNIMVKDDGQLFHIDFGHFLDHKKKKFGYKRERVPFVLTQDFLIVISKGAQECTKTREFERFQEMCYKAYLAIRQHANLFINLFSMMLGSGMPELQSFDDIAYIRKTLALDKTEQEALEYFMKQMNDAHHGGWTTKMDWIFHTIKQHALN
PI3K p110 beta/p85 alpha, sequence (P27986 whole entry): as the sequence (P27986 whole entry, canonical isoform) above
PI3K p110 beta/p85 alpha, sequence (P42338 whole entry): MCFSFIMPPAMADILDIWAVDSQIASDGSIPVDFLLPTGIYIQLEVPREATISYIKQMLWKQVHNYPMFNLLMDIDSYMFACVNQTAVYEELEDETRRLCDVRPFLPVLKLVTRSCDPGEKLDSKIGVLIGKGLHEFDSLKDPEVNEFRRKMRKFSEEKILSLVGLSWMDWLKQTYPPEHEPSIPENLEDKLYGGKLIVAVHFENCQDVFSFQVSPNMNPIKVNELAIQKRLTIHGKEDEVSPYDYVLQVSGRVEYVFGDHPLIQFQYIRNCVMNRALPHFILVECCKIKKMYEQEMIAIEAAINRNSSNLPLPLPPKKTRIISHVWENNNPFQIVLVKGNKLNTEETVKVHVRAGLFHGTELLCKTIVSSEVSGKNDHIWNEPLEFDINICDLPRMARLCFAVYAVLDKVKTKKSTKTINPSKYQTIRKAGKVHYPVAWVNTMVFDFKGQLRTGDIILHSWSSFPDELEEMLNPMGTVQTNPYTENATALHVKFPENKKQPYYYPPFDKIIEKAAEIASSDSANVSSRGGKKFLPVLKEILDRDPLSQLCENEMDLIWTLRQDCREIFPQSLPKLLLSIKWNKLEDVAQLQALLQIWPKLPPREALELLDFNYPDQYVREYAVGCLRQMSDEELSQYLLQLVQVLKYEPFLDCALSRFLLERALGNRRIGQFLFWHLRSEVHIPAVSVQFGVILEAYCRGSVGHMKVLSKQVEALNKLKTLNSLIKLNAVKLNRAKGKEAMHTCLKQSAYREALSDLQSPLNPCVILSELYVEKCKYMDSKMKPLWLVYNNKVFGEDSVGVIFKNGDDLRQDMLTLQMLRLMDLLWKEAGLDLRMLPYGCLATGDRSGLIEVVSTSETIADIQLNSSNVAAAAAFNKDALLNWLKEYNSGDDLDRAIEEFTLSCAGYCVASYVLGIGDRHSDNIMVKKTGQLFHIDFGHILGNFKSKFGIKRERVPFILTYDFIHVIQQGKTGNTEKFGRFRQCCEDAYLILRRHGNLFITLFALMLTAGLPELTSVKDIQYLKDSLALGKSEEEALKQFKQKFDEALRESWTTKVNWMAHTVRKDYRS
Description for PI3K p110 beta/p85 alpha: Inhibition of recombinant N-terminal FLAG-tagged full-length human PI3K p110beta/human p85alpha co- expressed in Sf9 insect cells using phosphatidylinositol 4,5-bisphosphate as substrate preincubated for 60 mins followed by substrate addition and measured after 1 hr in presence of ATP by ADP-Glo lipid kinase assay

Consider `C[C@@H](C1CC1)N1Cc2cc(-c3ccn4nc(N)c(-c5cnn(C)c5)c4n3)cc(C(F)(F)F)c2C1=O`, for which the IC50 in [1] was 1940 nM; against PI3K p110 beta/p85 alpha, > 15000 nM; in series [6] it was 1310 nM; in series [7], 64 nM; in [8], 1.9 nM. Further, the Vd in [2] came out at 1.2 L/kg. Besides, the clearance in series [3] was 13 mL/min/kg. For the same compound, in series [4], the hepatocyte CLint was 7.4 µL/min/1e6 cells. Also, the hepatocyte CLint at 0.5 µM in [5] is 3.3 µL/min/1e6 cells.

As for `CC(C)c1cc(-c2cnn3ccc(-c4cc5c(c(C(F)(F)F)c4)C(=O)N([C@@H](C)C4CC4)C5)nc23)ccc1C(=O)O`, the IC50 in [1] was 194 nM; against PI3K p110 beta/p85 alpha, 11600 nM; in series [6], 459 nM; in [7], 74 nM; in [8] it was 2.1 nM. For the same compound, on CYP3A4, the inhibition at 10 µM was 13%. In addition, the Vd in series [2] came out at 25 L/kg. In the series filed under Homo sapiens, the Ratio IC50 was 5520. The compound further gave a clearance in series [3] of 86.7 mL/min/kg. Besides, the hepatocyte CLint in [4] was determined as 1.7 µL/min/1e6 cells. For the same compound, the hepatocyte CLint at 0.5 µM in series [5] was < 1.2 µL/min/1e6 cells.

Usually IC50 stands for the concentration that inhibits the measured activity by half. Higher therefore signals weaker potency. Broadly, the clearance is the rate of elimination divided by the concentration. By inhibition is commonly meant the share of the control response that was lost under treatment. Read a high inhibition as a response far below the control.
